Results on 14 compounds are retold here after patent publication US20240415819A1, “MACROCYCLIC COMPOUNDS AS PROTEASOME SUBUNIT BETA TYPE-5 INHIBITORS” (Lead Discovery Center GmbH, priority 2021, published 2024).

The test system of assay [1] is B-cells isolated from PBMC's. As to the kind of experiment: Chymotrypsin-like ProteasomeGlo assay in B-cells isolated from PBMCs. The following applies: Homo sapiens. The assay is classed as cell-based, human. The source says:
PBMC's will be isolated from human blood followed by B-cell isolation from the PBMC's using the Miltenyi Isolation Kit. • 2. This experiment will use the Chymotrypsin-like ProteasomeGlo read-out to generate IC50's following compound treatment. • 3. Dilute all compounds 1:100 for the assay. • 4. […] Repeat the DMSO transfer with lane 12. • 5. Lane 12 should not be seeded with any cells. Only medium! • 6. For all steps, make sure the samples and reagents remain cool! • 7. While dealing with the buffy coats, be careful to not let any exposed skin to be in direct contact with the blood. […] PBMC isolation followed by B-cell isolation using the Miltenyi Kit • Day 2: B-cell plating, ECHO transfer and ProteasomeGlo assay For the initial steps and to make processing the buffy coats easier, separately process the buffy coats. • a. Cut the tube attached to the buffy coats carefully using a clean, sterile and fresh scalpel. • b. Transfer the blood into 2 individual 50 ml falcons. • c. Add an equal volume of DPBS to the blood in the falcons. • d. Add 20 ml of lymphocyte separating medium to two 50 ml falcons. • e. Carefully pour 15-20 ml of the blood+DPBS mix from step c. onto the lymphocyte separating medium from step d. • f. Centrifuge the falcons with the lymphocyte separating medium+blood mix at 800×g for 15 minutes using a swing-out rotor. • g. Following centrifugation, carefully remove the falcons from the centrifuge. • h. The following layers will be observed: • i. Aspirate the plasma layer off carefully without disturbing the different layers. • j. Remove the cell pellet using a pipette into two fresh 50 ml falcons. • k. Fill the falcons with the cells up to 50 ml with DPBS. • l. Centrifuge the falcons at 250×g for 10 minutes using a swing-out rotor (Brake-off). • m. Aspirate the complete DPBS off the cells without disturbing the cell pellet at the bottom of the falcon. • n. Re-suspend the cell pellet in 10 ml of 1×RBC lysis buffer. • o. Incubate the falcons at room temperature in the dark for 10 minutes. • p. After RBC lysis, centrifuge the tubes at 250×g for 10 minutes using a swing-out rotor (brake-off). • (*Note: If the cell pellet is still red or light red, repeat steps n. to p.!) • q. Re-suspend the cell pellet in DPBS up to 50 ml in the falcon. • r. Centrifuge the falcons at 250×g for 10 minutes using a swing-out rotor (Brake-off). • s. Aspirate the DPBS off the cells without disturbing the cell pellet at the bottom of the falcon. • t. Repeat the wash step as described in steps q. to s. 2× times more (total number of washes is 3×). • u. Aspirate the DPBS completely off the cell pellet after the last wash without disturbing the cell pellet. • v. Re-suspend the cell pellet in 20 ml of PBMC cell medium. • w. […] Re-suspend the pellet in volume of the B-cell isolation buffer calculated as follows: • k. Mix well using a 1 ml pipette and incubate the mix on ice for 20 mins. • l. In the meantime, equilibrate one LS Column as follows: • 1. Insert one LS Column into one slot of the separator as depicted in the pictures above. • 2. Place a 50 ml falcon at the bottom of the LS column to collect the wash flow-through. • 3. Add 3 ml of the B-cell isolation buffer into the column. • 4. Allow the buffer to flow-through making sure that the entire volume passes the column and that the column reservoir is empty before the addition of the cells. • 5. Remove the falcon with the flow-through and discard. • m. Place a fresh 50 ml falcon under the LS Column to collect the untouched B-cells isolated from the PBMCs. • n. Apply the entire volume of the cell+antibody+microbeads mix to the LS Column. • o. Collect the flow-through from each application of the mix into the same 50 ml falcon under the LS Column. • p. Once the complete volume of the cell+antibody+microbead mix has been passed through, proceed to washing of the column. • q. Add 3 ml of the B-cell isolation buffer to the LS Column and allow the buffer to flow-through. […]

In the next assay the test system is Karpas cells. The assay can be described thus: Glo assay of Karpas cells (Table 3; ProteasomeGlo plating scheme). The format is cell-based. The following applies: read-out: Pglo Karpas. From the text: Inhibition is indicated as IC50 [nM] (“-”=not measured). […] • Chymotrypsin-Like Cell-Based Proteasome-GloTM Assay (Promega; […]) • Cell culture 384-well plates (Greiner BioOne; 781080) • Dispensing cassette, MultiDrop Standard tube dispensing cassette (Thermo Scientific; 24072670) • DPBS (Pan BioTech; P04-36500) • Cell culture 384-well plates (Greiner BioOne; 781080) • CPD source plate: diamond-shape plate (Labcyte; LP-0200) • Intermediate plate (Labcyte; P-05525) [table] • a. Remove the plates with cells from the incubator. • b. Take all the plates including the compound plate, intermediate plate and Staurosporine plate to the ECHO. • c. Click on “Open” in the ECHO software and select the protocol “QLI5_25ul_30 uM-Grenier”. • d. Follow the on-screen prompts and instructions once you click “Start” to insert the compound plate, intermediate plate and destination plates. • e. Change the final number of destination plates on the program. • f. Follow the on-screen prompts and instructions once you click “Start” to load the Staurosporine and destination plates. • g. Once all the compounds, DMSO and Staurosporine have been transferred, place the destination plates in a wet tissue box. • h. Place the destination plates back into the incubator and incubate at 37° C., 5% CO2 for 105 minutes. • i. Re-seal all the compound+Stauro diamond and intermediate plates and store in the dark. Chymotrypsin like ProteasomeGlo Assay • 1. Thaw the components of the ProteasomeGlo assay at room temperature including the ProteasomeGlo Buffer, the lyophilized Luciferin Detection Reagent and the Suc-LLVY-Glo Substrate. • 2. Reconstitute the Luciferin Detection Reagent in the amber coloured bottle by adding 50 ml of the ProteasomeGlo Buffer. • 3. Vortex the Suc-LLVY-Glo Substrate briefly to reconstitute the Substrate well. • 4. Spin down the Substrate and add 250 μl of the Substrate to the reconstituted Luciferin Detection Reagent from step 2. • 5. Briefly vortex the amber bottle with the mix to prepare a homogenous solution. • 6. Place the mix prepared in step 5 to sit at room temperature for 60 minutes. • 7. After 60 minutes, pipette 25 μl of the mix from step 5 into all wells with the cells. • 8. Shake the plates for 2-5 minutes to ensure the complete mixing of the ProteasomeGlo reagent with the cells. • 9. Leave the plates in the dark for 10-15 minutes. • 10. Measure the luminescence read-out using the Viktor and the protocol “Luminescence_384Well_0.2 sec”. (Note: The Protoeasome-GloTM Reagent (combined Proteasome-GloTM Substrate, Proteasome-GloTM Buffer and Luciferin Detection Reagent) can be stored at 4° C. or -20° C. for 1 month with minimal loss of activity.)

Setting [2] is: B-cells isolated from PBMC's, read-out: Pglo B-Cell.

Where two headings read alike, the source gives them in different places.

Regarding `Cc1ccc2cc1CNC(=O)[C@H](CCc1ccccc1)NC(=O)[C@@H](NC(=O)c1ccccc1)CC(=O)N1CCCC(CCO2)C1` (stereo partly drawn) [Compound 26, N-((9S,12S)-5^4-methyl-8,11,14-trioxo-9-phenethyl-4-oxa-7,10-diaza-1(3,1)-piperidina-5(1,3)-benzenacyclotetradecaphane-12-yl)benzamide], in assay [1] (setting [2]), the IC50 is less than 100 nM.
As to `Cc1ccc2cc1CNC(=O)[C@H](CCc1ccccc1)NC(=O)[C@@H](NC(=O)CN1CCOCC1)CC(=O)N1CCCC(CCO2)C1` (stereo partly drawn) [Compound 88, N-((9S,12S)-5^4-methyl-8,11,14-trioxo-9-phenethyl-4-oxa-7,10-diaza-1(3,1)-piperidina-5(1,3)-benzenacyclotetradecaphane-12-yl)-2-morpholinoacetamide], the IC50 (in assay [1] (setting [2]); in the assay on Karpas cells) was less than 100 nM in each case.
Take `Cc1ccc2cc1CNC(=O)[C@H](CCc1ccccc1)NC(=O)[C@@H](NC(=O)c1n[nH]c3ccccc13)CC(=O)N1CCCC(CCO2)C1` (stereo partly drawn) [Compound 60, N-((9S,12S)-5^4-methyl-8,11,14-trioxo-9-phenethyl-4-oxa-7,10-diaza-1(3,1)-piperidina-5(1,3)-benzenacyclotetradecaphane-12-yl)-1H-indazole-3-carboxamide]: the IC50 (in assay [1] (setting [2]); in the assay with Karpas cells) was 100 to 500 nM in each case.
Consider `Cc1ccc2cc1CNC(=O)[C@H](CCc1ccccc1)NC(=O)[C@@H](NC(=O)CCc1cccc(F)c1)CC(=O)N1CCCC(CCO2)C1` (stereo partly drawn) [Compound 25, 3-(3-fluorophenyl)-N-((9S,12S)-5^4-methyl-8,11,14-trioxo-9-phenethyl-4-oxa-7,10-diaza-1(3,1)-piperidina-5(1,3)-benzenacyclotetradecaphane-12-yl)propanamide], for which the IC50 in assay [1] (setting [2]) was less than 100 nM.
Consider `Cc1ccc2cc1CNC(=O)[C@H](Cc1ccccc1)NC(=O)CCC(=O)N1CCCC(CCO2)C1` (stereo partly drawn) [Compound 79, (9S)-9-benzyl-5^4-methyl-4-oxa-7,10-diaza-1(3,1)-piperidina-5(1,3)-benzenacyclotetradecaphane-8,11,14-trione], for which the IC50 (in assay [1] (setting [2]); in the assay on Karpas cells) was 500 to 1000 nM throughout.
Consider `Cc1ccc2cc1CNC(=O)[C@H](CCc1ccccc1)NC(=O)[C@@H](NC(=O)CN1CCCC1)CC(=O)N1CCCC(CCO2)C1` (stereo partly drawn) [Compound 89, N-((9S,12S)-5^4-methyl-8,11,14-trioxo-9-phenethyl-4-oxa-7,10-diaza-1(3,1)-piperidina-5(1,3)-benzenacyclotetradecaphane-12-yl)-2-(pyrrolidin-1-yl)acetamide], for which, in the assay on Karpas cells, the IC50 was less than 100 nM.
As to `Cc1ccc2cc1CNC(=O)[C@H](CCc1ccccc1)NC(=O)[C@@H](NC(=O)c1ccccn1)CC(=O)N1CCCC(CCO2)C1` (stereo partly drawn) [Compound 40, N-((9S,12S)-5^4-methyl-8,11,14-trioxo-9-phenethyl-4-oxa-7,10-diaza-1(3,1)-piperidina-5(1,3)-benzenacyclotetradecaphane-12-yl)picolinamide], the IC50 in assay [1] (setting [2]) is less than 100 nM.
As to `Cc1ccc2cc1CNC(=O)[C@H](C)NC(=O)CCC(=O)N1CCCC(CCO2)C1` (stereo partly drawn) [Compound 78, (9S)-5^4,9-dimethyl-4-oxa-7,10-diaza-1(3,1)-piperidina-5(1,3)-benzenacyclotetradecaphane-8,11,14-trione], the IC50 (in assay [1] (setting [2]); in the assay on Karpas cells) was 100 to 500 nM throughout.
For `COc1ccccc1CC(=O)N[C@H]1CC(=O)N2CCCC(CCOc3ccc(C)c(c3)CNC(=O)[C@H](CCc3ccccc3)NC1=O)C2` (stereo partly drawn) [Compound 84, 2-(2-methoxyphenyl)-N-((9S,12S)-5^4-methyl-8,11,14-trioxo-9-phenethyl-4-oxa-7,10-diaza-1(3,1)-piperidina-5(1,3)-benzenacyclotetradecaphane-12-yl)acetamide], in the assay with Karpas cells, the IC50 was less than 100 nM.
Regarding `Cc1ccc2cc1CNC(=O)C(CCc1cccnc1)NC(=O)CCC(=O)N1CCCC(CCO2)C1` (stereo not drawn) [Compound 51, 5^4-methyl-9-(2-(pyridin-3-yl)ethyl)-4-oxa-7,10-diaza-1(3,1)-piperidina-5(1,3)-benzenacyclotetradecaphane-8,11,14-trione], the IC50 in assay [1] (setting [2]) is less than 100 nM.
On to `COc1cccc(CC(=O)N[C@H]2CC(=O)N3CCCC(CCOc4ccc(C)c(c4)CNC(=O)[C@H](CCc4ccccc4)NC2=O)C3)c1` (stereo partly drawn) [Compound 85, 2-(3-methoxyphenyl)-N-((9S,12S)-5^4-methyl-8,11,14-trioxo-9-phenethyl-4-oxa-7,10-diaza-1(3,1)-piperidina-5(1,3)-benzenacyclotetradecaphane-12-yl)acetamide], for which the IC50 in the assay with Karpas cells is less than 100 nM.
As to `CCOC(=O)N[C@H]1CC(=O)N2CCCC(CCOc3ccc(C)c(c3)CNC(=O)[C@H](CCc3ccccc3)NC1=O)C2` (stereo partly drawn) [Compound 39, ethyl ((9S,12S)-5^4-methyl-8,11,14-trioxo-9-phenethyl-4-oxa-7,10-diaza-1(3,1)-piperidina-5(1,3)-benzenacyclotetradecaphane-12-yl)carbamate], in assay [1] (read-out: Pglo B-Cell [nM]), the IC50 was less than 100 nM.
Regarding `CO[C@@H](C(=O)N[C@H]1CC(=O)N2CCCC(CCOc3ccc(C)c(c3)CNC(=O)[C@H](CCc3ccccc3)NC1=O)C2)c1ccccc1` (stereo partly drawn) [Compound 86, (2R)-2-methoxy-N-((9S,12S)-5^4-methyl-8,11,14-trioxo-9-phenethyl-4-oxa-7,10-diaza-1(3,1)-piperidina-5(1,3)-benzenacyclotetradecaphane-12-yl)-2-phenylacetamide], the IC50 in the assay with Karpas cells is less than 100 nM.
The same measure, in the same setting: next, `Cc1ccc2cc1CNC(=O)[C@H](CCc1ccccc1)NC(=O)[C@@H](NC(=O)c1cc3cc(C(F)(F)F)ccc3n1C)CC(=O)N1CCCC(CCO2)C1` (stereo partly drawn) [Compound 87, 1-methyl-N-((9S,12S)-5^4-methyl-8,11,14-trioxo-9-phenethyl-4-oxa-7,10-diaza-1(3,1)-piperidina-5(1,3)-benzenacyclotetradecaphane-12-yl)-5-(trifluoromethyl)-1H-indole-2-carboxamide]: less than 100 nM.
